Assay results published in paper PMC5438973 (Frontiers in Psychiatry, 2017).
“And” between values parts separate entries of the source, which are not always exact repeats. Equal values may be shown once.

How the values were obtained:
[1] = target: T1, h5-HT1D (Homo sapiens, UniProt P28221); experiment: Radioligand binding, human cloned h5-HT1D; details: agonist radioligand, read-out: Affinity, Mean
T1 construct: expressed in transfected cells
Description: (§1) Binding affinities at the serotonin receptors were determined by standard radioligand-binding methods using human cloned receptors as reported in the literature ([14], [15]).

[2] = target: T2, h5-HT1F (Homo sapiens, UniProt P30939); experiment: Radioligand binding, human cloned h5-HT1F; details: agonist radioligand, read-out: Affinity, Mean
T2 construct: expressed in transfected cells
T2 sequence (P30939 whole entry): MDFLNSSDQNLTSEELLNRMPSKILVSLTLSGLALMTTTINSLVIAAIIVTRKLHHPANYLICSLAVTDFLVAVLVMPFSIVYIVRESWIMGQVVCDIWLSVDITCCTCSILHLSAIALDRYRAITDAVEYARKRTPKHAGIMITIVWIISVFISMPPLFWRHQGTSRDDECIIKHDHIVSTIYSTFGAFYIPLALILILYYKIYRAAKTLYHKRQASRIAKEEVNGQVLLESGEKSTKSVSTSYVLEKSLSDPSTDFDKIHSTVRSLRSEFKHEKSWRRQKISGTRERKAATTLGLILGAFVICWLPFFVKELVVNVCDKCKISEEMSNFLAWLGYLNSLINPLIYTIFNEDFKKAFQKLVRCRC
Description: as §1

[3] = system: Male, Wistar rats; experiment: Schedule-induced polydipsia; type: in vivo, rat; details: for Decrease of excessive water consumption: sc
Excerpt: Rats were used in these experiments as they have been utilized for such studies in the past with great success in generating significant polydipsia ([16]). Male, Wistar rats were singly housed, and maintained at approximately 85% of their free-feeding weights with free access to water. Twelve adult male, Wistar rats (Harlan Industries, Indianapolis, IN, USA) were used. They were allowed to acclimate to our vivarium for at least 3 days prior to testing. They were 2 months old at the start of the experiments that lasted approximately 6–8 months and were without explicit experimental experience prior to this study. The rats were singly housed, and maintained at approximately 86–91% of their free-feeding weights with post session supplemental feeding of Lab Diet #5001 for rodents (PMI Nutrition International Inc., St. Louis, MO, USA). Body weights were corrected for the normal growth curve of Wistar rats such that actual body weight of each rat increased over the experimental time frame. Water was available continuously in the individual home cages. Rats were inspected daily 7 days/week by experimenters and veterinary staff.
The experiments were conducted using operant behavior test chambers ENV-007 (Med Associates Inc., Georgia, VT, USA), 30.5 cm × 24.1 cm × 29.2 cm. The test chambers were contained within light and sound attenuating shells. A food trough was mounted 2 cm off the grid floor on the centerline. Two response levers were centered 8 cm off the centerline and 7 cm off the grid floor. Three lights were located above each response lever at 15 cm off the grid floor. All events were controlled and lever-press data were recorded by a Compaq computer running MED-PC Version IV (Med Associates Inc., Georgia, VT, USA). The water bottle located within each chamber was weighed before and after experimental sessions.
Experimental sessions lasted 90 min. Test compounds or drug vehicle were administered on Tuesdays and Fridays, given the stability of performance (within 15% variation of the individual animal). Non-injection, control performances were on Thursdays. […] Dose-effect curves and drug interaction data were created by repeated testing in groups of five to eight rats. Test compounds were administered as described in figure legends. The effects of the compound are expressed as a percent of control for each individual animal. Results were analyzed by ANOVA followed by Dunnett’s multiple comparison (p < 0.05).
Thus, in keeping with the guidelines of animal care and use followed here, we utilized the minimum number of animals required for signal detection.

[4] = target: T3, h5-HT1A (Homo sapiens, UniProt P08908); experiment: Radioligand binding, human cloned h5-HT1A; details: agonist radioligand, read-out: Affinity, Mean
T3 construct: expressed in transfected cells
T3 sequence (P08908 whole entry): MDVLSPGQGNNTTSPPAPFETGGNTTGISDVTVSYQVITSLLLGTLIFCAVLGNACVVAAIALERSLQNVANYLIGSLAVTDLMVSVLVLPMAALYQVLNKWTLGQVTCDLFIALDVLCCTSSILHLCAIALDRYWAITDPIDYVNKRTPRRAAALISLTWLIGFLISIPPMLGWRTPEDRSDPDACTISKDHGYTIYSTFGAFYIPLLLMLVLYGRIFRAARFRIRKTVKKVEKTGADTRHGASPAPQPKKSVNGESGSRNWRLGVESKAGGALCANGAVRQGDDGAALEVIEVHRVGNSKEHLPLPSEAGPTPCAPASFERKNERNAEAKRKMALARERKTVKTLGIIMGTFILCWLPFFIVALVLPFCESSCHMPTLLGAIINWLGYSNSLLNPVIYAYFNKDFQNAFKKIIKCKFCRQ
Description: as §1

[5] = system: Male, Wistar rats; experiment: Deprivation-induced drinking; type: in vivo, rat; details: 18 h water deprivation, 5.6 mg/kg
Description: Male, Wistar rats (different from those rats used in the schedule-induced polydipsia studies) were used. They were 320 ± 15 g at the initiation of this study. Water was removed from their home cage for 18 h after which water bottles were presented to each rat in an individual housing cage in a quiet room for 60 min. The weight of the water bottle before and after the 60 min period was measured to the nearest 0.1 g. Six to eight rats were studied per dose. It is noted that this deprivation period is considered stressful. After the experiment, the animals were returned to their living cages with continuous access to food and water.

[6] = target: T4, h5-HT2C (Homo sapiens, UniProt P28335); experiment: Radioligand binding, human cloned h5-HT2C; details: agonist radioligand, read-out: Affinity, Mean
T4 construct: expressed in transfected cells; host or cells: AV12 cells
T4 sequence (P28335 33-458): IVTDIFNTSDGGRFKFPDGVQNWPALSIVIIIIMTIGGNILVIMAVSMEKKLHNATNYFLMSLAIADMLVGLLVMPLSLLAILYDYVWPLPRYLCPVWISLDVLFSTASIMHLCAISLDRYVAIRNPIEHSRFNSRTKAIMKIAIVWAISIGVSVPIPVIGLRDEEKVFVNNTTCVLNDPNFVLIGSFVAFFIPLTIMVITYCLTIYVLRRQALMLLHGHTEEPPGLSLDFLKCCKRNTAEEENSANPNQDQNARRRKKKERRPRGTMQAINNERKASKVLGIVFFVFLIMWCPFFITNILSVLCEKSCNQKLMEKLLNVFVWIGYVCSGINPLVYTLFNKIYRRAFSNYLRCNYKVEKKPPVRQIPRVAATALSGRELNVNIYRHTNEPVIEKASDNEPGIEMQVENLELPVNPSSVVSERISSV
Description: as §1

[7] = target: T5, h5-HT6 (Homo sapiens, UniProt P50406); experiment: Radioligand binding, human cloned h5-HT6; details: agonist radioligand, read-out: Affinity, Mean
T5 construct: expressed in transfected cells
T5 sequence (P50406 whole entry): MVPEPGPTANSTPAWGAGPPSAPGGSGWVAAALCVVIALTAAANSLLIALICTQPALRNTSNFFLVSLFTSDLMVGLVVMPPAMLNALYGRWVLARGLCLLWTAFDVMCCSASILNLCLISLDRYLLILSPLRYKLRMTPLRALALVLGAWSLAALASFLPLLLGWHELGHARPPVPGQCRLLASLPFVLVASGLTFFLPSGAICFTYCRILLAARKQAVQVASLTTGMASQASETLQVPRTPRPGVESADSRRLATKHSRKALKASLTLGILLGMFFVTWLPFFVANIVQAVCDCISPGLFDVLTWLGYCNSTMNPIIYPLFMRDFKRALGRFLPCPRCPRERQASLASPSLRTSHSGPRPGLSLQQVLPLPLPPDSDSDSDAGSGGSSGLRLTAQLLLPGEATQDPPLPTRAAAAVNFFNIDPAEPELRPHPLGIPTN
Description: as §1

[8] = 10 mg/kg, five consecutive days

T1 sequence (P28221 whole entry): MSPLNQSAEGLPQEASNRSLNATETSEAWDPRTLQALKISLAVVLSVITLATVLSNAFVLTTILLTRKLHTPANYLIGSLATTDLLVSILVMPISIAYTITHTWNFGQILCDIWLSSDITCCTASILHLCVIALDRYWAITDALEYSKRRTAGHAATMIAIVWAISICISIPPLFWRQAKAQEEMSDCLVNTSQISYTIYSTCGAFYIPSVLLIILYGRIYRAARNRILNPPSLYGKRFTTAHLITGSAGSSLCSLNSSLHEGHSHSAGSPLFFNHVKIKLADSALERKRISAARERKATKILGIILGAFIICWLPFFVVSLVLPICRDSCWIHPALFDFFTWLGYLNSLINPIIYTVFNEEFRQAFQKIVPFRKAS

SMILES: C[C@H]1CN(c2ccc(C(F)(F)F)c3ccoc23)CCN1 [CPD 1, (3S)-3-methyl-1-[4-(trifluoromethyl)-7-benzofuranyl]-piperazine]
- Ki [1]: 296 nM
- Ki [2]: 540 nM
- Attenuation (tolerance) of the effect over 5 days [3, 8]: not a significant attenuation
- Effect on excessive water consumption over 5 days of dosing [3, 8]: significantly decreased
- Decrease of excessive water consumption ([3]; CPD 1 5.6 mg/kg sc with MDL100907 0.1 mg/kg, 30 min prior): 65%
- Decrease of excessive water consumption ([3]; CPD 1 5.6 mg/kg, 20 min prior): 64%
- Dose at which statistically significant reduction of excessive drinking was detected ([3]; Dunnett p < 0.05): ≥ 3 mg/kg
- Effect on excessive drinking / amount of water consumed ([3]; given alone, acute dosing): dose-dependently suppressed
- Effect on number of responses emitted (lever pressing for food) ([3]; given alone, acute dosing): without affecting response output
- Ki [4]: 205 nM
- Reduction of deprivation-induced drinking [5]: 50%
- Ki [6]: 2 nM and 2.11 nM
- Ki [7]: 212 nM
